# Results published in patent EP1030842B1, “METALLOPROTEINASE INHIBITORS” (BRITISH BIOTECH PHARMACEUTICALS LIMITED, priority 1997, dated 1999).
# Read-outs that look alike come from different tables or passages of the source.
# Columns and labels:
# [1] = Propensity to induce observable signs of tendinitis in rats (observation based score); type: in vivo, Male Lewis rats; details: 5µl/hr; for signs of tendinitis: observed daily for 16 days, mean scores >2 significant
# Procedure: The compound of the invention was tested for its propensity to induce observable signs of tendinitis in rats. The tendinitic effect in rats of the compound of the invention ("Compound A") was compared with that of a close structural isomer, namely N^1-[2,2-dimethyl-1S-(pyridin-3-ylcarbamoyl)-propyl]-N^4-hydroxy-2R-isobutyl-3S-hydroxy-succinamide ("Compound B").
# Male Lewis rats were used. In each study up to 30 rats were weighed and randomised on bodyweight for group allocation, n=6/group. In each study, a corresponding vehicle group was run to compare with each treatment group.
# Compound A was formulated as its mesylate salt, whilst Compound B was formulated as the free base. For Compound A @ 15mg/ml the vehicle was 50% DMSO, 37% 0.1M methane sulphonic acid, 13% sterile water; and @ 30mg/ml the vehicle was 50% DMSO, 37% 0.2M methane sulphonic acid, 13% sterile water. For Compound B @ 15mg/ml the vehicle was 50% DMSO/water.
# Alzet (trade mark) osmotic minipumps (2ML2, 14 day, 5µl/hr from Alza Corp., Palo Alto CA 94303), were weighed empty and full to be sure of correct fill volume. Prior to implantation, filled pumps were placed in an incubator at 37°C. All rats were anaesthetized with halothane. Once anaesthetised, the scruff was shaved and disinfected. A longitudinal skin incision, approx 2 cm long, was made on the prepared site and a subcutaneous pocket was made under the skin using a pair of haemostatic forceps. Minipumps were inserted with the exit of the pump facing away from the wound. The incision wound was closed with sutures, and the area around the wound was re-disinfected. Immediately post-operatively, all the rats received analgesic, (Temgesic -trade mark - Reckitt and Colman) 0.1mg/kg s.c. in the flank. On recovery from anaesthesia, the animals were returned to cages containing dry bedding to ensure the wound remained dust free prior to healing. On the day followng surgery, all rats were placed back on standard bedding and housed in groups of 3 to enable more accurate observation of signs of tendinitis.
# Following the implantation of mini-pumps, rats were weighed and monitored for the possible onset of tendinitis. Onset and severity of tendinitis was measured by an observation based scoring system (see below). The rats were observed daily for 16 days. Mean scores >2 were considered significant.
# [2] = Blood concentration in minipump-dosed rats of the tendinitis study (fluorometric assay); type: in vivo; details: rats of the tendinitis tests; blood samples days 3, 10 and 16 or 17 post implantation
# Procedure: Blood samples were obtained on days 3 and 10 post minipump implantation from rats lightly anaesthetised with halothane via the tail vein. Blood samples (0.5ml) were placed into tubes containing 3.0ml methanol to extract free and bound compound. Blood concentration of Compound A or Compound B was determined by a fluorometric assay using the coumarin peptide substrate Mca-Pro-Leu-Gly-Leu-Dpa-Ala-Arg-NH2 (Mca = (7-methoxycoumarin-4-yl)acetyl, Dpa = N-3-(2,4-dinitrophenyl)-L-2,3-diaminopropyl) (see Knight et. al., FEBS Lett. 1992, 296, 263-266). On either day 16 or 17 post implantation, studies were ended, rats were terminally anaesthetised with halothane and blood samples (0.5ml) were taken by cardiac puncture and the blood concentration of Compound A or Compound B determined.
# 72 kDa gelatinase = biological target: T1, 72 kDa gelatinase (Homo sapiens, UniProt P08253); assay: 72 kDa gelatinase inhibition (14C gelatin, based on Sellers et al); type: biochemical; details: 16 hours at 37°C
# T1 construct: endogenous in cells; host or cells: RPMI-7951 cells
# T1 sequence (P08253 110-660): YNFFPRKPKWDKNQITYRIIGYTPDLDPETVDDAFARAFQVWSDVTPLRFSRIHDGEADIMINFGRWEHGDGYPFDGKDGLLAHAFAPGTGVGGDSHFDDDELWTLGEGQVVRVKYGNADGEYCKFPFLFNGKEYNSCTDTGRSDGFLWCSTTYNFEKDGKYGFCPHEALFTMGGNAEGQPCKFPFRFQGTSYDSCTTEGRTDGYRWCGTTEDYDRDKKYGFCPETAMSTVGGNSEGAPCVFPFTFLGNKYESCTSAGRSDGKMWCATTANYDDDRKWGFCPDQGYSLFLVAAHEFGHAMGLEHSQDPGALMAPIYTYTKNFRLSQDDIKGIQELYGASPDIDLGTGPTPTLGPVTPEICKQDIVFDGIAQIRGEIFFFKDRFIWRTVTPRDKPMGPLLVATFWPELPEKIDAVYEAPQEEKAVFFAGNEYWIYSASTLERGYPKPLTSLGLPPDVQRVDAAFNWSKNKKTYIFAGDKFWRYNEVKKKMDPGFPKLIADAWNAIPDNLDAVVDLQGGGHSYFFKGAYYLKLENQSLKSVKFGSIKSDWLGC
# Procedure: 72 kDa gelatinase, derived from RPMI-7951 cells was purified by gelatin-agarose chromatography. The enzyme was activated by incubation with aminophenyl mercuric acetate and approximately 0.05 units was incubated with 50µg [^14C]-radiolabelled gelatin in an appropriate buffer for 16 hours at 37'C. At the end of the incubation 50µg bovine serum albumin, together with trichloroacetic acid (final concentration 16%) were added to stop the reaction and to precipitate any undegraded substrate. The reaction tubes were placed on ice for 15 minutes before centrifugation at 10,000g for 15 minutes to sediment the precipitated substrate. A 200µl aliquot of the reaction supernatant was removed and the radioactivity determined by liquid scintillation counting. The effect of the inhibitors was determined by reference to a dose response curve. The IC50 (the concentration of inhibitor required to cause a 50% decrease in enzyme activity) was obtained by fitting a curve to the data and computing the concentration of inhibitor required to achieve 50% inhibition of the enzyme. For each IC50 determination, the effect on gelatinase activity of at least 8 concentrations of the inhibitor were examined. The inhibitors were dissolved and diluted in DMSO.
# [3] = Blood concentration over time after gavage, by collagenase inhibitory activity of blood extracts; type: in vivo; details: male rats
# Procedure: The concentration over time of compound of the invention in the blood of laboratory animals following administration of the test compounds was measured. The compound was administered by gavage to 6 male rats (300g) per treatment group. Blood samples were removed by tail venepuncture at 0.5, 1.0, 2.0, 6.0 and 24 hours post administration. 0.4 ml of blood was placed into 4.5ml tubes containing 0.1ml acid citrate dextrose (ACD) as anti-coagulant. For extraction, 3ml methanol was added and the precipitated blood pelletted by centrifugation (30 min at 3000 rpm). A 2ml aliquot of supernatant was removed and concentrated by lyophilisation. The extract was redissolved in 200µl DMSO and a 10µl aliquot assayed for collagenase inhibitory activity. The inhibitory activity in the extracts was determined using the collagenase assay described in Biological Example A above, and the concentration of inhibitor (that is drug plus any active metabolites) obtained by comparison with standard curves. Results are expressed as peak concentration in ng/ml, as area under the curve (AUC) in ng/ml x hours, over 0.5-24 hours, and as AUC in number of IC50's x hours.
# [4] = Inhibitory activity in blood after oral administration to marmosets; type: in vivo
# [5] = Inhibitory activity in blood after oral administration to healthy human volunteers; type: in vivo
# B16 mouse melanoma cells = assay: B16 mouse melanoma model; type: in vivo, C57/BL6J mice
# Text: In this model C57/BL6J mice are inoculated subcutaneously with 10^5 B16 mouse melanoma cells. The tumours are allowed to grow over 18 days and the tumour weight calculated by calliper measurements and the following formula: weight (mg)- length (mm) x width (mm) ö 4. A group of mice (n=19) received the compound, administered via a mini-osmotic pump implanted subcutaneously on the opposite flank to the B16 tumour. The pump was implanted the day before tumour inoculation and the compound was delivered at a dose of 360 µg/day. A control group (n=17) received the appropriate volume of vehicle from identical implanted pumps.
# MDA-435 cells = details: study ended day 32
# Procedure: In this model, animals were inoculated with MDA-435 cells (10^6 cells/mouse), the tumours allowed to grow for four days and then the animals were randomised by tumour weight into three treatment groups (n=15 per group). Mini-pumps were surgically implanted on day 5 containing either vehicle or test compound at 15 mg/ml or 60 mg/ml (delivering 180 or 720 µg/mouse/day respectively). The pumps were replaced on day 19 and the study ended on day 32.
# [6] = Rat experimental autoimmune neuritis (EAN) model of GBS; type: in vivo
# Procedure: The effect of the compound of the invention was tested in an animal model of GBS Experimental autoimmune neuritis (EAN) is a T cell mediated, autoimmune disorder of the peripheral nervous system. […] EAN can be induced when animals are injected with myelin from peripheral nerves, or with protein components of the myelin such as Protein 0, in adjuvant. EAN lesions occur in the spinal roots and peripheral nerves and are characterised by perivascular mononuclear cell infiltration, demyelination of axons and nerve conduction deficit.
# The compound of the invention was tested in a rat EAN model where disease symptoms were induced by injection of peripheral nerve myelin in adjuvant. […]
# [7] = Delayed type hypersensitivity (DTH) model of MS; type: in vivo, Male Lewis rats; details: 30mg/kg orally twice daily, mean ± standard error of the mean
# interstitial collagenase = interstitial collagenase (Homo sapiens, UniProt P03956); assay: biochemical
# Chain of interstitial collagenase (P03956 100-469, species assumed): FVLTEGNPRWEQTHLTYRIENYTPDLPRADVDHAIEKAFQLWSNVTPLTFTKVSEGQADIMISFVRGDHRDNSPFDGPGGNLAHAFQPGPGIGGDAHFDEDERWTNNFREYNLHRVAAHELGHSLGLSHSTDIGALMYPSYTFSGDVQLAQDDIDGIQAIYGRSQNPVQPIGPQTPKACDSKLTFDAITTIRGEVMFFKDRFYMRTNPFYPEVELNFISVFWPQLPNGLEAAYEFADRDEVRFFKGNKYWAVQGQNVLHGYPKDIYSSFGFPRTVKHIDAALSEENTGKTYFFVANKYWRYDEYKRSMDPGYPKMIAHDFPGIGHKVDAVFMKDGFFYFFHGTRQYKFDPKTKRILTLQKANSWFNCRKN
# Procedure: The potency of the compound of the invention as inhibitors of interstitial collagenase was determined by the procedure of Cawston and Barrett, (Anal. Biochem., 99, 340-345, 1979), whereby a 1mM solution of the compound being tested, or a dilution thereof, was incubated at 37° for 16 hours with collagen and collagenase (buffered with 25mM Hepes, pH 7.5 containing 5mM CaCl2, 0.05% Brij 35 and 0.02% NaN3). The collagen was acetylated ^14C collagen prepared by the method of Cawston and Murphy, (Methods in Enzymology, 80, 711, 1981), hereby incorporated by reference. The samples were centrifuged to sediment undigested collagen, and an aliquot of the radioactive supernatant removed for assay on a scintillation counter as a measure of hydrolysis.
# stromelysin-1 = stromelysin-1 (Homo sapiens, UniProt P08254); assay: biochemical
# Chain of stromelysin-1 (P08254 100-477, species assumed): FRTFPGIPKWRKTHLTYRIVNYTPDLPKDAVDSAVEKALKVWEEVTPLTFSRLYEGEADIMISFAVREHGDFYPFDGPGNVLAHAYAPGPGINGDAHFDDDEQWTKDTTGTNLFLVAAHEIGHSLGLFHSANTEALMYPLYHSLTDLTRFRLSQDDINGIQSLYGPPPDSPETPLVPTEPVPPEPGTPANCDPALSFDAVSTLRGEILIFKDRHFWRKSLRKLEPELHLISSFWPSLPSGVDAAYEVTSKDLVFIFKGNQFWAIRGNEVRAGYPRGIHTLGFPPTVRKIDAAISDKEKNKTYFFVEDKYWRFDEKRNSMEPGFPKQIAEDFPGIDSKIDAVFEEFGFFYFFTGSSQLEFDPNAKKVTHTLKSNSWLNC
# Procedure: The potency of the compound of the invention as inhibitors of stromelysin-1 was determined by the procedure of Cawston et al, (Biochem. J., 195, 159-165, 1981), whereby a 1mM solution of the compound being tested, or a dilution thereof, was incubated at 37° for 16 hours with stromelysin and ^14C acetylate casein (buffered with 25mM Hepes, pH 7.5 containing 5mM CaCl2, 0.05% Brij 35 and 0.02% NaN3). The casein was acetylated ^14C casein prepared by the method of Cawston et al (ibid).
# [8] = 15mg/ml in osmotic minipump, Compound A as mesylate salt, Compound B as free base
smiles,measurement,setting,value
"CC(C)C[C@@H](C(=O)N[C@H](C(=O)Nc1cccnc1)C(C)(C)C)[C@H](O)C(=O)NO [Compound B, N^1-[2,2-dimethyl-1S-(pyridin-3-ylcarbamoyl)-propyl]-N^4-hydroxy-2R-isobutyl-3S-hydroxy-succinamide]",signs of tendinitis,[1]; [8],significant signs from day 8 onwards
same,mean scores (tendinitis),"[1]; day 8, 15mg/ml in osmotic minipump",> 2
same,mean scores (tendinitis),"[1]; days 15 and 16, 15mg/ml in osmotic minipump",about 6
same,plasma exposure from the minipumps,[2],receiving plasma exposure
"CO[C@H](C(=O)NO)[C@@H](CC(C)C)C(=O)N[C@H](C(=O)Nc1ccccn1)C(C)(C)C [compound of the invention, N^1-[2,2-Dimethyl-1S-(pyridin-2-ylcarbamoyl)-propyl]-N^4-hydroxy-2R-isobutyl-3S-methoxy-succinamide]",IC50,72 kDa gelatinase,0.07 µM
same,AUC (0.5 - 24h),[3]; AUC in number of IC50's x hours,674 n IC50's x h
same,AUC (0.5 - 24h),[3]; drug plus any active metabolites in blood,2966 ng/ml x h
same,inhibitory activity in the blood,[4],significant levels of inhibitory activity have been detected
same,inhibitory activity in the blood,[5],significant levels of inhibitory activity have been detected
same,weight of the compound-treated tumours,"B16 mouse melanoma cells; day 18, 360 µg/day via subcutaneous mini-osmotic pump, control 1145 ± 97 mg",774 ± 50 mg
same,reduction of tumour weight,"B16 mouse melanoma cells; day 18, 360 µg/day, versus vehicle control, p<0.005",32%
same,plasma level,"B16 mouse melanoma cells; end of the study, 360 µg/day via mini-osmotic pump",0.0268 ± 0.0032 µg/mL
same,inhibition of tumour growth,MDA-435 cells; 180 µg/mouse/day (15 mg/ml mini-pump),19%
same,inhibition of tumour growth,"MDA-435 cells; 720 µg/mouse per day (60 mg/ml mini-pump), p<0.005",33%
same,signs of tendinitis,[1]; [8],no significant signs of tendinitis
same,signs of tendinitis,"[1]; 30mg/ml in osmotic minipump, mesylate salt",no significant signs of tendinitis
same,clinical symptoms,"[6]; given therapeutically day 8-15, 15 or 30 mg/ml at 10 µl/hour, 14 and 28 mg/kg/day",reduces clinical symptoms in a dose dependent manner
same,development of clinical symptoms,"[6]; treatment day 1-15, minipumps 15 or 30 mg/ml at 5 µl/hour, 7 and 14 mg/kg/day",significantly reduces the development of clinical symptoms in a dose-dependent manner
same,Blood brain barrier leakage,"[7]; day 5 to day 15 after second BCG injection, p<0.05 vs vehicle",2.042±0.487 mm^2
same,T cell infiltration,"[7]; OX-22 positive cells, p<0.0001 vs vehicle",341.2±21.9 cells/mm^2
same,Demyelination,[7]; not statistically significant,0.758±0.227 mm^2
same,MHC class II expression,[7]; not statistically significant,1.318±0.300 mm^2
same,plasma exposure from the minipumps,[2],receiving plasma exposure
same,IC50,interstitial collagenase,0.01 µM
same,IC50,stromelysin-1,0.03 µM
